# Test results from ChEMBL document CHEMBL5233223, “Dammarane-type leads panaxadiol and protopanaxadiol for drug discovery: Biological activity and structural modification” (Eur J Med Chem, 2020).
# Tests used:
# [1] = system: MCF7; test: Antiproliferative activity against human MCF7 cells assessed as cell growth inhibition; format: functional, cell-based
# [2] = system: HepG2 2.2.15; test: Antiproliferative activity against human HepG2.2.15 cells assessed as cell growth inhibition; format: functional, cell-based
# [3] = system: HCT-116; test: Antiproliferative activity against human HCT-116 cells assessed as cell growth inhibition; format: functional, cell-based
# [4] = system: SW480; test: Antiproliferative activity against human SW480 cells assessed as cell growth inhibition; format: functional, cell-based
# [5] = system: HCT-116; test: Antiproliferative activity against human HCT-116 cells assessed as cell growth inhibition at 20 uM in presence of epicatechin at 150 uM relative to control; format: functional; set-up: scale not given: the % may be the effect or the level left
# [6] = system: HCT-116; test: Antiproliferative activity against human HCT-116 cells assessed as cell growth inhibition at 20 uM in presence of epicatechin at 200 uM relative to control; format: functional; set-up: scale not given: the % may be the effect or the level left
# [7] = system: HCT-116; test: Antiproliferative activity against human HCT-116 cells assessed as cell growth inhibition at 20 uM in presence of epicatechin at 250 uM relative to control; format: functional; set-up: scale not given: the % may be the effect or the level left
# [8] = system: HCT-116; test: Antiproliferative activity against human HCT-116 cells assessed as cell growth inhibition at 20 uM relative to control; format: functional; set-up: scale not given: the % may be the effect or the level left
# [9] = system: HCT-116; test: Induction of apoptosis in human HCT-116 cells at 20 uM in presence of epicatechin at 150 uM relative to control; format: functional
# [10] = system: HCT-116; test: Induction of apoptosis in human HCT-116 cells at 20 uM in presence of epicatechin at 200 uM relative to control; format: functional
# [11] = system: HCT-116; test: Induction of apoptosis in human HCT-116 cells at 20 uM in presence of epicatechin at 250 uM relative to control; format: functional
# [12] = system: HCT-116; test: Induction of apoptosis in human HCT-116 cells at 20 uM at 20 uM relative to control; format: functional
# [13] = system: SK-HEP1; test: Antiproliferative activity against human SK-HEP1 cells assessed as cell growth inhibition measured after 24 hrs by [3H]thymidine incorporation assay; format: functional, cell-based
# [14] = system: HeLa; test: Antiproliferative activity against human HeLa cells assessed as cell growth inhibition measured after 24 hrs by [3H]thymidine incorporation assay; format: functional, cell-based
# [15] = system: Mus musculus; test: In vivo radioprotective activity in gamma-irradiated ICR mouse assessed as inhibition of radiation-induced apoptosis frequency relative to control; format: functional; set-up: scale not given: the % may be the effect or the level left
# [16] = system: HCT-116; test: Antiproliferative activity against human HCT-116 cells assessed as cell growth inhibition at 200 uM relative to control; format: functional; set-up: scale not given: the % may be the effect or the level left
# [17] = system: HCT-116; test: Induction of apoptosis in human HCT-116 cells at 250 uM relative to control; format: functional
# [18] = system: HeLa; test: Antiproliferative activity against human HeLa cells assessed as cell growth inhibition; format: functional, cell-based
# [19] = system: PC-3; test: Antiproliferative activity against human PC-3 cells assessed as cell growth inhibition; format: functional, cell-based
# [20] = system: Bacillus subtilis; test: Antimicrobial activity against Bacillus subtilis assessed as bacterial growth inhibition; format: functional
# [21] = system: Staphylococcus aureus; test: Antimicrobial activity against Staphylococcus aureus USA300 assessed as bacterial growth inhibition; format: functional
# [22] = system: HCT-116; test: Induction of apoptosis in human HCT-116 cells at 20 uM in presence of EGCG at 30 uM relative to control; format: functional
# [23] = system: HCT-116; test: Induction of apoptosis in human HCT-116 cells at 20 uM in presence of EGCG at 20 uM relative to control; format: functional
# [24] = system: HCT-116; test: Induction of apoptosis in human HCT-116 cells at 20 uM relative to control; format: functional
# [25] = system: HCT-116; test: Induction of apoptosis in human HCT-116 cells at 10 uM relative to control; format: functional
# [26] = system: HCT-116; test: Induction of apoptosis in human HCT-116 cells at 10 uM in presence of EGCG at 10 uM relative to control; format: functional
# [27] = system: HCT-116; test: Induction of apoptosis in human HCT-116 cells at 10 uM in presence of EGCG at 30 uM relative to control; format: functional
# [28] = system: HCT-116; test: Induction of apoptosis in human HCT-116 cells at 10 uM in presence of EGCG at 20 uM relative to control; format: functional
# [29] = system: HCT-116; test: Induction of apoptosis in human HCT-116 cells at 20 uM in presence of EGCG at 10 uM relative to control; format: functional
# [30] = system: HCT-116; test: Antiproliferative activity against human HCT-116 cells assessed as cell growth inhibition in presence of irinotecan; format: functional, cell-based
# [31] = system: SW480; test: Antiproliferative activity against human SW480 cells assessed as cell growth inhibition in presence of irinotecan; format: functional, cell-based
# [32] = system: HCT-116; test: Antiproliferative activity against human HCT-116 cells assessed as cell growth inhibition by crystal violet staining based assay; format: functional
# [33] = system: HCT-116; test: Antiproliferative activity against human HCT-116 cells assessed as cell growth inhibition by crystal violet staining based assay relative to control; format: functional; set-up: scale not given: the % may be the effect or the level left
# [34] = system: SW480; test: Antiproliferative activity against human SW480 cells assessed as cell growth inhibition by crystal violet staining based assay; format: functional
# [35] = system: LNCaP; test: Antiproliferative activity against human LNCAP cells assessed as cell growth inhibition in presence of calcitriol; format: functional, cell-based
# [36] = system: LNCaP C4-2; test: Antiproliferative activity against human LNCaP C4-2 cells assessed as cell growth inhibition in presence of calcitriol; format: functional, cell-based
# [37] = system: LNCaP C4-2; test: Antiproliferative activity against human LNCaP C4-2 cells assessed as cell growth inhibition; format: functional, cell-based
# [38] = system: LNCaP; test: Antiproliferative activity against human LNCAP cells assessed as cell growth inhibition; format: functional, cell-based
# [39] = molecular target: Estrogen receptor (Homo sapiens, UniProt P03372); test: Displacement of [3H]-17beta-estradiol to estrogen receptor (unknown origin)
# Estrogen receptor, sequence (P03372 whole entry): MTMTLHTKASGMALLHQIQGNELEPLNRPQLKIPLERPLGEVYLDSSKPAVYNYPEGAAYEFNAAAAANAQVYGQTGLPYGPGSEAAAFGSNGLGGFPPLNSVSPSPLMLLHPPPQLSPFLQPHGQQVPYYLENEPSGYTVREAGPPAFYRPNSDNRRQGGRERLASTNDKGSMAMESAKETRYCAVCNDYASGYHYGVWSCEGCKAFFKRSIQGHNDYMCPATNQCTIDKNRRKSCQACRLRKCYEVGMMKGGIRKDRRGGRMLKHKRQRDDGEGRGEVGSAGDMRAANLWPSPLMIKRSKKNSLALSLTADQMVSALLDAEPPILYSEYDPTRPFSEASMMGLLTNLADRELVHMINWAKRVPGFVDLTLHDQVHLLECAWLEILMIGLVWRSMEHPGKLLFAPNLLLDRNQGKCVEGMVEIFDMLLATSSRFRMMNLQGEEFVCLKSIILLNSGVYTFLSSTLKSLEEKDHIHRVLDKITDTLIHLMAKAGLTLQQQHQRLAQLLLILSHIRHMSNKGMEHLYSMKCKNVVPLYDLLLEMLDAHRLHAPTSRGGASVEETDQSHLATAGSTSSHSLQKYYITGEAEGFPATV
# [40] = system: HT-1080; test: Antiproliferative activity against human HT-1080 cells assessed as inhibition of cell proliferation; format: functional, cell-based
# [41] = molecular target: Stromelysin-1 (Homo sapiens) (UniProt P08254); test: Inhibition of MMP-3 (unknown origin) at 5 uM
# Stromelysin-1 (Homo sapiens), sequence (P08254 100-477 limits assumed): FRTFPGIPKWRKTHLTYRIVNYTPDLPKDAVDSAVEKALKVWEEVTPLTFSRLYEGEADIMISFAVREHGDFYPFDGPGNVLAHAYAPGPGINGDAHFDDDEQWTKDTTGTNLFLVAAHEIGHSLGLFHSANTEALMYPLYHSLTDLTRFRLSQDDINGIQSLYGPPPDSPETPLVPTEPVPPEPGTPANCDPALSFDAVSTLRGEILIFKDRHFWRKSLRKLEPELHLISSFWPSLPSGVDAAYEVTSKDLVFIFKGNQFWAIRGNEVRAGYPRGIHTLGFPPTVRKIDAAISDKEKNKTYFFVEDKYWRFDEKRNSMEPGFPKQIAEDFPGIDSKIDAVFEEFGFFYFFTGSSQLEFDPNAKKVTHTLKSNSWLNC
# [42] = molecular target: Stromelysin-1 (Homo sapiens) (UniProt P08254); test: Inhibition of MMP-3 (unknown origin) at 10 uM
# [43] = system: SF-188; test: Antiproliferative activity against human SF-188 cells assessed as inhibition of cell proliferation; format: functional, cell-based
# [44] = Antiproliferative activity against human U-87 MG cells assessed as inhibition of cell proliferation; format: functional, cell-based, U-87MG ATCC
# [45] = system: Ishikawa; test: Induction of autophagy in human Ishikawa cells assessed as ratio of LC3bII/LC3bI levels; format: functional
# [46] = system: RL95-2; test: Induction of autophagy in human RL95-2 cells assessed as ratio of LC3bII/LC3bI levels; format: functional
# [47] = system: REH; test: Antiproliferative activity against human REH cells assessed as cell growth inhibition; format: functional, cell-based
# [48] = system: RS4-11; test: Antiproliferative activity against human RS4-11 cells assessed as cell growth inhibition; format: functional, cell-based
# [49] = Cytotoxicity against human PBMC assessed as cell growth inhibition; format: toxicity, cell-based; details: PBMC (peripheral blood mononuclear cells)
# [50] = Antiproliferative activity against human Ectopic endometrial stromal cell assessed as cell growth inhibition; format: functional, cell-based
smiles,measurement,setting,value
CC(=O)Oc1ccccc1C(=O)O[C@H]1CC[C@@]2(C)C(CC[C@]3(C)C2C[C@@H](O)C2C([C@@]4(C)CCCC(C)(C)O4)CC[C@]23C)C1(C)C (stereo partly specified),IC50,[1],2.56 µM
CC1(C)CCC[C@](C)(C2CC[C@]3(C)C2[C@H](O)CC2[C@@]4(C)CC[C@H](OC(=O)CCC(=O)O)C(C)(C)C4CC[C@]23C)O1 (stereo partly specified),IC50,[2],7.27 µM
CC(=O)O[C@H]1CC[C@@]2(C)C(CC[C@]3(C)C2C[C@@H](O)C2C([C@@](C)(O)CCC=C(C)C)CC[C@]23C)C1(C)C (stereo partly specified),IC50,[3],43.3 µM
same,IC50,[4],30 µM
same,IC50,[1],37.3 µM
CC1(C)CCC[C@](C)(C2CC[C@]3(C)C2[C@H](O)CC2[C@@]4(C)CC[C@H](O)C(C)(C)C4CC[C@]23C)O1 (stereo partly specified),Activity,[5],50.7%
same,Activity,[6],97.2%
same,Activity,[7],94.7%
same,Activity,[8],28.7%
same,Activity,[9],11.9%
same,Activity,[10],16.6%
same,Activity,[11],25.8%
same,Activity,[12],7.2%
same,IC50,[13],800 nM
same,IC50,[14],1200 nM
same,Activity,[15],29.5%
Oc1cc(O)c2c(c1)O[C@H](c1ccc(O)c(O)c1)[C@H](O)C2 [(-)-EPICATECHIN],Activity,[16],17%
same,Activity,[17],9.4%
CC1(C)CCC[C@](C)(C2CC[C@]3(C)C2[C@H](O)CC2[C@@]4(C)CC[C@H](OC(=O)c5ccccc5O)C(C)(C)C4CC[C@]23C)O1 (stereo partly specified),IC50,[2],7.27 µM
CC1(C)CCC[C@](C)(C2CC[C@]3(C)C2[C@H](O)CC2[C@@]4(C)CC[C@H](OC(=O)c5cc(O)c(O)c(O)c5)C(C)(C)C4CC[C@]23C)O1 (stereo partly specified),IC50,[2],7.27 µM
CC(C)(O)[C@H]1CC[C@@](C)([C@H]2CC[C@]3(C)C2[C@H](O)CC2[C@@]4(C)CC[C@H](O)C(C)(C)C4CC[C@]23C)O1 (stereo partly specified),IC50,[18],4.58 µM
COc1cc(/C=C2/C[C@@]3(C)C(CC[C@]4(C)C3C[C@@H](O)C3C([C@@]5(C)CCCC(C)(C)O5)CC[C@]34C)C(C)(C)C2=O)cc(OC)c1OC (stereo partly specified),IC50,[19],45.6 µM
CC(C)(O)[C@H]1CC[C@@](C)([C@H]2CC[C@]3(C)C2[C@H](O)CC2[C@@]4(C)CC[C@H](OC(=O)C5CCNCC5)C(C)(C)C4CC[C@]23C)O1 (stereo partly specified),MIC,[20],2 µg/mL
same,MIC,[21],8 µg/mL
CC1(C)CCC[C@@](C)(C2CC[C@]3(C)C2[C@H](O)CC2[C@@]4(C)CC[C@H](O)C(C)(C)C4CC[C@]23C)O1 (stereo partly specified),Activity,[22],48%
same,Activity,[23],40.7%
same,Activity,[24],19%
same,Activity,[25],5.7%
same,Activity,[26],14.1%
same,Activity,[27],35.2%
same,Activity,[28],30.2%
same,Activity,[29],27.8%
same,IC50,[3],12.1 µM
same,IC50,[4],5 µM
same,IC50,[30],11.8 µM
same,IC50,[31],4.4 µM
CC1(C)CCC[C@](C)(C2CC[C@]3(C)C2[C@H](O)CC2[C@@]4(C)CC[C@H](OC(=O)CCCC(=O)O)C(C)(C)C4CC[C@]23C)O1 (stereo partly specified),IC50,[2],7.27 µM
CC(C)=CCC[C@](C)(O)C1CC[C@]2(C)C1[C@H](O)CC1[C@@]3(C)CC[C@H](O)C(C)(C)C3CC[C@]12C (stereo partly specified),IC50,[32],4.69 µM
same,Activity,[33],<30%
same,IC50,[34],8.99 µM
same,IC50,[35],53 µM
same,IC50,[36],23 µM
same,IC50,[37],13 µM
same,IC50,[38],41 µM
same,IC50,[39],26.3 µM
same,IC50,[40],76.8 µM
same,inhibition,[41],40.3%
same,inhibition,[42],68.6%
same,IC50,[43],24 µM
same,IC50,[44],38 µM
same,Ratio,[45],0.91
same,Ratio,[46],1.93
same,IC50,[47],24.4 µM
same,IC50,[48],27.2 µM
same,IC50,[49],116 µM
same,IC50,[50],30.6 µM
